This is an account of results in ChEMBL document CHEMBL4385641 (Bioorg Med Chem, 2019).

Bounds are passed on as bounds.

The nature of data set [1]: Lipophilicity, log D of compound. It is filed as physicochemical. The note with it: octanol/water.
Data set [2] addresses T1, Cannabinoid receptor 1 (Homo sapiens, UniProt P21554). Put plainly: Inverse agonist activity at human CB1 receptor expressed in CHOK1 cells co-expressing Galphaq16 assessed as apparent equilibrium constant after 90 secs by […]-4 AM dye-based FLIPR assay. In kind it is cell-based.
The target in data set [3] is T1, Cannabinoid receptor 1. Put plainly: Displacement of [3H]-CP55940 from human CB1 receptor expressed in CHO cell membranes.
Data set [4] is described as follows: Intrinsic clearance in human liver microsomes at 1 uM incubated for up to 120 mins by mass mass spectrometric method. It is filed as ADME, Microsome. To be noted: for CLH: microsomes, 2 h, 1 µM.
The nature of data set [5]: Permeability across apical to basolateral side in MDCK-MDR1 cells at 10 uM incubated for 1 hr by mass spectrometric method. In kind it is ADME, cell-based, Canis lupus familiaris. To be noted: dog, mdck-mdr1, 1 h.
Data set [6] in a line: Half life in human liver microsomes at 1 uM by mass mass spectrometric method. It is filed as ADME, Microsome. To be noted: for t1/2: microsomes, 1 µM. On the technique in general: Liver microsomes are a subcellular fraction often used to study metabolism.
Data set [7] is described as follows: Drug uptake in C57BL6 mouse brain at […], po by LC-MS/MS analysis. It is filed as ADME, organism-based. To be noted: in vivo.
Data set [8] can be described thus: Half life in C57BL6 mouse plasma at […], po by LC-MS/MS analysis. In kind it is ADME, organism-based.
Data set [9] is described as follows: Cmax in C57BL6 mouse plasma at […], po by LC-MS/MS analysis. It is filed as ADME, organism-based. Set-up: dose 2.5 mg/kg, route oral.
The nature of data set [10]: Ratio of Cmax in brain to plasma in C57BL6 mouse at […], po by LC-MS/MS analysis. It is filed as ADME, organism-based.
For another data set, the species on record is Homo sapiens. Put plainly: Selectivity ratio of Ki for displacement of [3H]-CP55940 from human CB2 receptor expressed in CHO cell membranes to Ki for displacement of [3H]-CP55940 from human CB1 receptor expressed in CHO cell membranes. In general terms: Displacement assays read how much labelled ligand stays bound in the presence of the test substance.

The next data set has as its target Cannabinoid receptor 2 (Homo sapiens, UniProt P34972). Put plainly: Displacement of [3H]-CP55940 from human CB2 receptor expressed in CHO cell membranes.
Data set [11] has as its target T1, Cannabinoid receptor 1. Put plainly: Inverse agonist activity at human CB1 receptor expressed in CHOK1 cells co-expressing Galphaq16 assessed as inhibition of calcium mobilization after 90 secs by […]-4 AM dye-based FLIPR assay. It is filed as functional, cell-based.
The nature of data set [12]: Cmax in C57BL6 mouse plasma at 0.3 mg/kg, po by LC-MS/MS analysis. It is filed as ADME, organism-based. Also noted: dose 0.3 mg/kg, route oral.

Cannabinoid receptor 2, sequence (P34972 whole entry): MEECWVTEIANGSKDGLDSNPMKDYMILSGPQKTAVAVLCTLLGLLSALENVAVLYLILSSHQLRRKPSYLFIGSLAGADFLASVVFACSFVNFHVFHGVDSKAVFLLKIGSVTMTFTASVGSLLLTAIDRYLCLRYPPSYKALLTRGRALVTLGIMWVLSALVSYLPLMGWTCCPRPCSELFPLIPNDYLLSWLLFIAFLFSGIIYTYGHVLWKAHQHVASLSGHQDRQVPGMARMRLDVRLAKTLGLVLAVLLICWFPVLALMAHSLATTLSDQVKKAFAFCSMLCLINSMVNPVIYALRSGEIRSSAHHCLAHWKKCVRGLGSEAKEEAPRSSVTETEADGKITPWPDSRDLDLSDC
T1 sequence (P21554 whole entry): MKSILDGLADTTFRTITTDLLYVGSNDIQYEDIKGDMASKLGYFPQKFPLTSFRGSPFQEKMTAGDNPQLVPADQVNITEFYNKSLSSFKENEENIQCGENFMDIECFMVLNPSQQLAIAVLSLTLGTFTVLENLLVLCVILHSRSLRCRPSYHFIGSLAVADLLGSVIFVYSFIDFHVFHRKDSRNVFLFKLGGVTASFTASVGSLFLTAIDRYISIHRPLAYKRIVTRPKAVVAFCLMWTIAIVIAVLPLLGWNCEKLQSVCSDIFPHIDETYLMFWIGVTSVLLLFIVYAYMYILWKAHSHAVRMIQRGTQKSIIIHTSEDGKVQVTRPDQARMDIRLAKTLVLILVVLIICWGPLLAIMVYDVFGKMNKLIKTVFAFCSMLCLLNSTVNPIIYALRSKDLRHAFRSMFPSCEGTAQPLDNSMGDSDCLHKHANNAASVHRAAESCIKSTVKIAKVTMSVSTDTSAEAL

A word on the logD: it is lipophilicity at a set pH, counting ionised and neutral species. A low value points to lower lipophilicity. `N=C(Nc1ccc(F)cc1)NC1CCN(c2ncnc3c2nc(-c2ccccc2Cl)n3-c2ccc(Cl)cc2)CC1` displayed a logD in [1] of 4.6. Further, on Cannabinoid receptor 1 [2], the Ke(app) was 300 nM.
For orientation: Ki means a dissociation constant, usually derived from enzyme kinetics or from competition with a known ligand. The low end stands for higher affinity, the high end for lower affinity. In general, half-life refers to the time needed for the level to fall by half in the phase considered. The low end stands for rapid decline, the high end for slow decline. In general, Cmax refers to the maximum level reached in the sampled fluid or tissue. `N=C(NC1CCN(c2ncnc3c2nc(-c2ccccc2Cl)n3-c2ccc(Cl)cc2)CC1)c1ccc(F)cc1` yielded a Ki on Cannabinoid receptor 1 [3] of 780 nM. This molecule returned a logD in data set [1] of 4.1. This molecule also yielded a CLH in [4] of 8 µL/min/mg. Besides, the permeability in [5] amounted to 0.2%. The t1/2 in data set [6] is 2.77 h. Besides, the Drug uptake in [7] is on record as less than 20%. For the same molecule, the half-life in [8] is 6 h. In addition, the Cmax in data set [9] came to 50 ng/mL. Besides, in [10], the Ratio came out at 0.16. In the data set listed under Homo sapiens, the Ratio Ki was more than 7. The Ke(app) at Cannabinoid receptor 1 [2] is 170 nM.
By EC50 is commonly meant the concentration at which the effect is half-maximal. Consider `O=S(=O)(NC1CCN(c2ncnc3c2nc(-c2ccccc2Cl)n3-c2ccc(OC(F)F)nc2)CC1)c1ccc(F)c(F)c1`, for which the Ki on Cannabinoid receptor 1 [3] turned out to be 3 nM; at Cannabinoid receptor 2, 860 nM. The same molecule yielded a CLH in data set [4] of 5 µL/min/mg. The molecule also yielded a t1/2 in data set [6] of 4.57 h. In addition, the Drug uptake in [7] was less than 20%. On Cannabinoid receptor 1 [11], the EC50 was 132 nM. The half-life in [8] is 1.6 h. In [9], this molecule registered a Cmax of 62 ng/mL. Besides, the Ratio in data set [10] is listed as 0.18. Also, the Ratio Ki in the data set listed under Homo sapiens amounted to 290. Besides, the Ke(app) at Cannabinoid receptor 1 [2] is 1.6 nM.
Consider `CC(C(=O)NC1CCN(c2ncnc3c2nc(-c2ccccc2Cl)n3-c2ccc(Cl)cc2)CC1)c1ccccc1` (centres undefined), for which the Ki worked out at 3 nM at Cannabinoid receptor 1 [3] and 150 nM on Cannabinoid receptor 2. Also, the permeability in data set [5] is listed as less than 0.1%. The Ratio Ki in the data set filed under Homo sapiens amounted to 50. Besides, the Ke(app) at Cannabinoid receptor 1 [2] is 2 nM.
`O/N=C(\c1ccc(F)cc1)C1CCN(c2ncnc3c2nc(-c2ccccc2Cl)n3-c2ccc(Cl)cc2)CC1` (stereo in doubt; 20): the Ki was 5 nM on Cannabinoid receptor 1 [3] and more than 10000 nM at Cannabinoid receptor 2. The microsomal CLint at 1 µM in data set [4] (liver microsomes, read-out: CLH) stood at 19 µL/min/mg. This molecule also registered a half-life at 1 µM in data set [6] (liver microsomes) of 1.1 h.
Take `Clc1ccc(-n2c(-c3ccccc3Cl)nc3c(N4CCC(Nc5ccccn5)CC4)ncnc32)cc1`: the results for the inhibition constant (Ki) on Cannabinoid receptor 1 [3] and at Cannabinoid receptor 2 were 2.4 nM and 3100 nM, respectively. In data set [5], the permeability worked out at 0.1%. Further, in data set [8], the half-life was 7.4 h. This molecule also had a Cmax in [9] of 38 ng/mL. In addition, the Ratio in [10] is 0.45. Moreover, the Ratio Ki in the data set listed under Homo sapiens was found to be 1300. The Ke(app) on Cannabinoid receptor 1 [2] was 54 nM.
As for `O=S(=O)(CCC(F)(F)F)NC1CCN(c2ncnc3c2nc(-c2ccccc2Cl)n3-c2ccc(Cl)cc2)CC1`, the Ki on Cannabinoid receptor 1 [3] amounted to 4 nM; on Cannabinoid receptor 2 it was 420 nM. The permeability in data set [5] turned out to be 1%. The Ratio Ki in the data set filed under Homo sapiens amounted to 105. The Ke(app) on Cannabinoid receptor 1 [2] is 12 nM.
As for `O/N=C(\c1ccc(F)cc1)C1CCN(c2ncnc3c2nc(-c2ccccc2Cl)n3-c2ccc(Cl)cc2)CC1` (stereo in doubt; 21), the inhibition constant (Ki) is 7 nM on Cannabinoid receptor 1 [3] and more than 10000 nM on Cannabinoid receptor 2 (cho). Moreover, the CLH in data set [4] worked out at 12 µL/min/mg. Moreover, the t1/2 in data set [6] is 1.68 h.
For `O=S(=O)(NC1CCN(c2ncnc3c2nc(-c2ccccc2Cl)n3-c2ccc(Cl)cc2)CC1)c1ccc(F)c(F)c1`, the inhibition constant (Ki) was 1.7 nM on Cannabinoid receptor 1 [3] and more than 10000 nM on Cannabinoid receptor 2. Further, in data set [5], the permeability is less than 0.1%. For the same molecule, the half-life in [8] was 5.3 h. The concentration in [9] peaked (Cmax) at 12 ng/mL. In addition, the Ratio in data set [10] is recorded as 0.31. In the data set filed under Homo sapiens, the Ratio Ki was more than 5000. Also, at Cannabinoid receptor 1 [2], the Ke(app) is 0.5 nM.
Turning to `O=S(=O)(NC1CCCCC1)NC1CCN(c2ncnc3c2nc(-c2ccccc2Cl)n3-c2ccc(Cl)cc2)CC1`, the Ki on Cannabinoid receptor 1 [3] was determined as 5 nM; at Cannabinoid receptor 2 it was 330 nM. Besides, the Cmax in [12] is 4 ng/mL. For the same molecule, in the data set filed under Homo sapiens, the Ratio Ki came to 66. The Ke(app) at Cannabinoid receptor 1 [2] was 8 nM.
Turning to `Clc1ccc(-n2c(-c3ccccc3Cl)nc3c(N4CCC(Nc5ccccc5)CC4)ncnc32)cc1`, the Ki on Cannabinoid receptor 1 [3] was 6 nM; at Cannabinoid receptor 2, more than 10000 nM. In data set [5], this molecule came in with a permeability of 0%. For the same molecule, the Ratio Ki in the data set listed under Homo sapiens is more than 1600. Further, the Ke(app) at Cannabinoid receptor 1 [2] was 1.4 nM.
Regarding `O=C(NC1CCN(c2ncnc3c2nc(-c2ccccc2Cl)n3-c2ccc(Cl)cc2)CC1)c1ccc(F)cc1F`, the Ki at Cannabinoid receptor 1 [3] was 2 nM; at Cannabinoid receptor 2 it was more than 7000 nM. This molecule came in with a permeability in [5] of less than 0.1%. For the same molecule, the Ratio Ki in the data set filed under Homo sapiens is more than 3500. At Cannabinoid receptor 1 [2], the Ke(app) was 1.2 nM.
For `CCCCCS(=O)(=O)NC1CCN(c2ncnc3c2nc(-c2ccccc2Cl)n3-c2ccc(Cl)cc2)CC1`, the Ki on Cannabinoid receptor 1 [3] amounted to 9 nM; at Cannabinoid receptor 2, 570 nM. The molecule further returned a permeability in [5] of less than 0.1%. For the same molecule, in the data set listed under Homo sapiens, the Ratio Ki is 63. The Ke(app) on Cannabinoid receptor 1 [2] is 29 nM.
In the case of `O=S(=O)(NC1CCN(c2ncnc3c2nc(-c2ccccc2Cl)n3-c2ccc(Cl)cc2)CC1)c1ccccc1F`, the Ki was determined as 0.38 nM at Cannabinoid receptor 1 [3] and 8500 nM at Cannabinoid receptor 2. Besides, at Cannabinoid receptor 1 [11], the EC50 was 287 nM. In the data set filed under Homo sapiens, the Ratio Ki was found to be 22000. For the same molecule, the Ke(app) at Cannabinoid receptor 1 [2] is 0.8 nM.
Consider `CCCCC(=O)NC1CCN(c2ncnc3c2nc(-c2ccccc2Cl)n3-c2ccc(C(F)(F)F)nc2)CC1`, for which the figures for the inhibitory constant (Ki) on Cannabinoid receptor 1 [3] and on Cannabinoid receptor 2 were 3 nM and 420 nM, respectively. Further, the permeability in data set [5] was found to be 28%. The Ratio Ki in the data set filed under Homo sapiens was found to be 140. In addition, the Ke(app) on Cannabinoid receptor 1 [2] is 4 nM.
Consider `O=C(NC1CCN(c2ncnc3c2nc(-c2ccccc2Cl)n3-c2ccc(Cl)cc2)CC1)c1ccccc1F`, for which the Ki was found to be 0.98 nM on Cannabinoid receptor 1 [3] and 6000 nM at Cannabinoid receptor 2. For the same molecule, the permeability in [5] is listed as 0.1%. The EC50 at Cannabinoid receptor 1 [11] was 94.8 nM. Besides, the Ratio Ki in the data set listed under Homo sapiens amounted to 6000. Moreover, on Cannabinoid receptor 1 [2], the Ke(app) is 0.6 nM.
